Results on one compound are retold here after patent US12390440B2, “Immunomodulating trifluoromethyl-aminal azalides” (Zoetis Services LLC, priority 2020, dated 2025).

The subject of one assay is P. multocida. Nature of the assay: Murine P. multocida intranasal challenge study, survival. In kind it is in vivo. The settings on record: 16 mg/kg (T02) subcutaneous 18 hours after challenge, 5×10^3 CFU/mouse. Here is the method: In one murine P. multocida intranasal challenge study, mice were administered tulathromycin (16 mg/kg; T02), M9 (32 mg/kg; T03), or ceftiofur (9 mg/kg; T04) by subcutaneous injection 18 hours after bacterial challenge (5×10^3 CFU/mouse) for lung tissue RNA sequence analysis. Survival at Day 7 was about 80%, 50%, and 90% for T02, T03, and T04, respectively, compared to placebo at 0%. Differential gene expression from total lung tissue RNA sequence analysis indicated at least 226 unique genes were up or down regulated (with significance) for T03. Output from ingenuity pathway analysis of these unique genes predicted major upstream regulators of the involved pathways. Data was analyzed based on the number of genes being modulated in the same direction that were associated with a given upstream regulator. An activation z-score of 2 or greater is considered significant and the direction change is indicated by + (activated) or − (inhibited). The top 5 pathways included: IL-9 signaling, glucocorticoid receptor signaling, prolactin signaling, JAK STAT signaling, and IL-17 signaling. The top 6 upstream regulators (activation z-score) included: lipopolysaccharide (−6.725), TNF (−4.669), IFNγ (−5.759), IL-1ß (−5.947), STAT1 (−2.787), and poly rI:rC-RNA (−5.289). Even though this study was run in the murine model, the top upstream regulators identified as being modulated by M9 include an almost ubiquitous overlap with the pathways identified in the natural disease study as being key mediators in BRD, and therefore is modulating highly relevant pathways in BRD pathobiology.

Assay [1] has as its system M. haemolytica (strain: OSU-012103-BHI). Nature of the assay: Bovine M. haemolytica intratracheal lung challenge model. The settings on record: bovine M. haemolytica challenge.
In a further assay the test system is S. aureus. Briefly: MIC, S. aureus. The settings on record: Staphylococcus aureus.

The structures appear in SMILES notation. ≈ marks a conversion by molar mass, not a printed value.

Turning to `CCCNC[C@]1(O)[C@H](C)O[C@@H](O[C@H]2[C@H](C)[C@@H](O[C@@H]3O[C@H](C)C[C@H](N(C)C)[C@H]3O)[C@](C)(O)C[C@@H](C)CN[C@H](C)[C@@H](O)[C@](C)(O)[C@@H](CC)OC(=O)[C@@H]2C)C[C@@]1(C)OC` [tulathromycin, (2R,3S,4R,5R,8R,10R,11R,12S,13S,14R)-11-(((2S,3R,4S,6R)-4-(dimethylamino)-3-hydroxy-6-methyltetrahydro-2H-pyran-2-yl)oxy)-2-ethyl-3,4,10-trihydroxy-13-(((2R,4R,5S,6S)-5-hydroxy-4-methoxy-4,6-dimethyl-5-((propylamino)methyl)tetrahydro-2H-pyran-2-yl)oxy)-3,5,8,10,12,14-hexamethyl-1-oxa-6-azacyclopentadecan-15-one], in the assay on P. multocida, the “Survival at Day 7” value was “about 80%”. In addition, the IL-6 levels result in assay [1] is reported as “significantly reduced”. This compound showed an MIC against S. aureus of 8 µg/mL (≈ 9.92 µM).

The MIC is the lowest concentration that inhibits growth of the organism. A high value points to a need for much substance.
